Measurements reported in patent US8852554B2, “Radiolabelled PDE10 ligands” (Janssen Pharmaceutica NV, priority 2009, dated 2014).
Where “and” joins values, the source holds several entries; their conditions need not be identical. Identical values can stand only once.

Test: Biodistribution studies of the 18F tracers in rats
Type: in vivo, male Wistar rats
Settings: rat
Experimental: Biodistribution studies were carried out in healthy male Wister rats (body weight 200-500 g) at 2 min, 30 min and 60 min post injection (p.i.) (n=3/time point). For |^18F|B-4 only the 2 min and 30 min time points were studied. […] Blood and major organs were collected in tared tubes and weighed. The radioactivity in blood, organs and other body parts was measured using an automated gamma counter. The distribution of radioactivity in different parts of the body at different time points p.i. of the tracer was calculated and expressed as percentage of injected dose (% ID), and as percentage of injected dose per gram tissue (% ID/g) for the selected organs. % ID is calculated as cpm in organ/total cpm recovered. For calculation of total radioactivity in blood, blood mass was assumed to be 7% of the body mass.

Structure (SMILES): COc1ccc(COc2ccc(-c3nn(CC[18F])cc3-c3ccncc3)cc2)nc1 [[^18F]B-4]
- retention in the PDE10A-rich region striatum (biodistribution studies): retention
- Clearance, 2 min/30 min ratio of % ID/g (normalized for body weight), Blood (i.v.): 1.36
- Clearance, 2 min/30 min ratio of % ID/g (normalized for body weight), Cerebellum (i.v.): 3.82
- Clearance, 2 min/30 min ratio of % ID/g (normalized for body weight), Cerebrum total (i.v.): 2.90
- Clearance, 2 min/30 min ratio of % ID/g (normalized for body weight), Cortex (i.v.): 4.24
- Clearance, 2 min/30 min ratio of % ID/g (normalized for body weight), Hippocampus (i.v.): 3.08
- Clearance, 2 min/30 min ratio of % ID/g (normalized for body weight), Rest of cerebrum (i.v.): 2.87
- Clearance, 2 min/30 min ratio of % ID/g (normalized for body weight), Striatum (i.v.): 1.80
- % ID, Blood (i.v., 2 min p.i.): 4.55 ± 0.4 % ID
- % ID, Carcass (i.v., 2 min p.i.): 36.93 ± 1.3 % ID
- % ID, Cerebellum (i.v., 2 min p.i.): 0.07 % ID and 0.065 ± 0.011 % ID
- % ID, Cerebrum total (i.v., 2 min p.i.): 0.32 % ID and 0.317 ± 0.014 % ID
- % ID, Cortex (i.v., 2 min p.i.): 0.036 ± 0.007 % ID
- % ID, Heart (i.v., 2 min p.i.): 0.62 ± 0.2 % ID
- % ID, Hippocampus (i.v., 2 min p.i.): 0.006 ± 0.002 % ID
- % ID, Intestines (i.v., 2 min p.i.): 12.02 ± 2.1 % ID
- % ID, Kidneys (i.v., 2 min p.i.): 4.99 ± 0.2 % ID
- % ID, Liver (i.v., 2 min p.i.): 35.98 ± 3.1 % ID
- % ID, Lungs (i.v., 2 min p.i.): 1.12 ± 0.0 % ID
- % ID, Rest of cerebrum (i.v., 2 min p.i.): 0.257 ± 0.014 % ID
- % ID, Spleen + Pancreas (i.v., 2 min p.i.): 2.37 ± 0.2 % ID
- % ID, Stomach (i.v., 2 min p.i.): 2.8 % ID and 2.80 ± 0.2 % ID
- % ID, Striatum (i.v., 2 min p.i.): 0.018 ± 0.003 % ID
- % ID, Urine (i.v., 2 min p.i.): 0.28 ± 0.1 % ID
- % ID/g normalized for body weight, Blood (i.v., 2 min p.i.): 0.07 ± 0.01 % ID/g × body wt. in kg
- % ID/g normalized for body weight, Cerebellum (i.v., 2 min p.i.): 0.109 % ID/g × body wt. in kg and 0.109 ± 0.01 % ID/g × body wt. in kg
- % ID/g normalized for body weight, Cerebrum + Cerebellum (i.v., 2 min p.i.): 0.13 ± 0.01 % ID/g × body wt. in kg
- % ID/g normalized for body weight, Cerebrum total (i.v., 2 min p.i.): 0.124 ± 0.01 % ID/g × body wt. in kg
- % ID/g normalized for body weight, Cortex (i.v., 2 min p.i.): 0.168 % ID/g × body wt. in kg and 0.168 ± 0.00 % ID/g × body wt. in kg
- % ID/g normalized for body weight, Heart (i.v., 2 min p.i.): 0.21 ± 0.06 % ID/g × body wt. in kg
- % ID/g normalized for body weight, Hippocampus (i.v., 2 min p.i.): 0.091 % ID/g × body wt. in kg and 0.091 ± 0.01 % ID/g × body wt. in kg
- % ID/g normalized for body weight, Kidneys (i.v., 2 min p.i.): 0.63 ± 0.17 % ID/g × body wt. in kg
- % ID/g normalized for body weight, Liver (i.v., 2 min p.i.): 1.09 ± 0.08 % ID/g × body wt. in kg
- % ID/g normalized for body weight, Lungs (i.v., 2 min p.i.): 0.22 ± 0.03 % ID/g × body wt. in kg
- % ID/g normalized for body weight, Rest of cerebrum (i.v., 2 min p.i.): 0.117 ± 0.01 % ID/g × body wt. in kg
- % ID/g normalized for body weight, Spleen + Pancreas (i.v., 2 min p.i.): 0.55 ± 0.03 % ID/g × body wt. in kg
- % ID/g normalized for body weight, Striatum (i.v., 2 min p.i.): 0.226 % ID/g × body wt. in kg and 0.226 ± 0.01 % ID/g × body wt. in kg
- % ID/g, Blood (i.v., 2 min p.i.): 0.14 ± 0.04 % ID/g
- % ID/g, Cerebellum (i.v., 2 min p.i.): 0.231 ± 0.031 % ID/g
- % ID/g, Cerebrum + Cerebellum (i.v., 2 min p.i.): 0.269 ± 0.066 % ID/g
- % ID/g, Cerebrum total (i.v., 2 min p.i.): 0.263 ± 0.029 % ID/g
- % ID/g, Cortex (i.v., 2 min p.i.): 0.355 ± 0.012 % ID/g
- % ID/g, Heart (i.v., 2 min p.i.): 0.45 ± 0.13 % ID/g
- % ID/g, Hippocampus (i.v., 2 min p.i.): 0.193 ± 0.031 % ID/g
- % ID/g, Liver (i.v., 2 min p.i.): 2.32 ± 0.28 % ID/g
- % ID/g, Lungs (i.v., 2 min p.i.): 0.46 ± 0.07 % ID/g
- % ID/g, Rest of cerebrum (i.v., 2 min p.i.): 0.248 ± 0.030 % ID/g
- % ID/g, Spleen + Pancreas (i.v., 2 min p.i.): 1.17 ± 0.03 % ID/g
- % ID/g, Striatum (i.v., 2 min p.i.): 0.467 ± 0.002 % ID/g
- striatum/blood ratio (from % ID/g normalized for body weight) (i.v., 2 min p.i.): 3.47
- striatum/cortex ratio (from % ID/g normalized for body weight) (i.v., 2 min p.i.): 1.35
- striatum/hippocampus ratio (from % ID/g normalized for body weight) (i.v., 2 min p.i.): 2.49
